In PubChem BioAssay AID2615 (Southern Research Specialized Biocontainment Screening …, 2010):

Tested on: BSC cells SV40 infection, CPE inhibition
Experiment: SV40 cytopathic effect inhibition and cytotoxicity, confirmation, SV40 T antigen inhibitor project, BSC cells (AID 2615)
Conditions: measured here: cytotoxicity in BSC cells

ClC(Cl)(c1nnnn1-c1ccccc1)c1nnnn1-c1ccccc1 showed a TC50 of 34 µM.
